From patent US7834213B2, “Colorant compound and method of manufacturing the same as well as blue resist composition for use in color filter containing the same” (Canon Kabushiki Kaisha, priority 2005, dated 2010)

What was measured:
[1] = Evaluation of spectral characteristics (UV visible absorption spectrum in cyclohexanone); format: physicochemical; conditions: for absorbance ratio: absorbance at largest absorption wavelength (500 to 650 nm) / absorbance at smallest absorption wavelength (400 to 500 nm), in cyclohexanone, room temperature; for λmax [nm]: absorption peak wavelength, dissolved in cyclohexanone, absorbance regulated to 2.0, room temperature
Procedure: The colorant compounds represented by the formula (10) was dissolved in cyclohexanone and regulated so as to show an absorbance of 2.0. […] The absorption peak wavelength (λmax [nm]) was determined from the spectrum obtained by the observation. The spectral characteristics of the colorant compound were evaluated by the absorbance ratio of the largest absorption wavelength of the spectrum in the range of 500 to 650 nm to the smallest absorption wavelength of the spectrum in the range of 400 to 500 nm (the absorbance at the largest absorption wavelength/the absorbance at the smallest absorption wavelength).
While the lightness can be evaluated by means of the Y value of the XYZ standard […] system established by CIE (Commission Internationale de l'Eclairage), the lightness was evaluated by means of the absorbance ratio in this example because the Y value can vary remarkably when the hue is shifted slightly.

[2] = Evaluation of solubility of colorant compounds to cyclohexanone; format: physicochemical; conditions: rank A/B/C

| SMILES | absorbance ratio [1] | λmax [nm] [1] | solubility [2] |
| --- | --- | --- | --- |
| CCCCC(CC)CN(CC(CC)CCCC)S(=O)(=O)c1cccc(CN(CC)c2ccc(C(=C3C=CC(=[N+](CC)Cc4cccc(S(=O)(=O)N(CC(CC)CCCC)CC(CC)CCCC)c4)C=C3)c3ccccc3S(=O)(=O)[O-])cc2)c1 (centres unmarked) [compound (10)] | 433 | 619 nm | A (The solubility to cyclohexanone is not lower than 10%.) |
| CCCCNc1ccc(NCCCC)c2c1C(=O)c1ccccc1C2=O [compound (28), C. I. Solvent Blue 35, reference compound] | 77 | 620 nm | – |
